Measured values as given in US20170050957A1, “4-AMINO-6-(HETEROCYCLIC)PICOLINATES AND 6-AMINO-2-(HETEROCYCLIC)PYRIMIDINE-4-CARBOXYLATES AND THEIR USE AS HERBICIDES” (Dow AgroSciences LLC, priority 2013, published 2017).
Like-named read-outs stand apart in the source and are kept apart here.

Experiments:
[1] = system: Key Grass and Sedge Weeds as well as Grass Crops; assay: Post-emergent Test II herbicidal activity (Table 16); assay type: in vivo; settings: post-emergence, 336 h, 14 d; for pest or weed control at 35 g/ha: 35 g ai/ha; for pest or weed control at 70 g/ha: 70 g ai/ha; for pest or weed control at 140 g/ha: 140 g ai/ha
In short: (§1)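 Visual injury rating (0 = none, 100% = complete kill) made 14 d after treatment, relative to untreated plants. Compounds in an acetone/DMSO/aqueous crop-oil/surfactant spray, at top rate and serial 1/2×-1/16× rates, were applied at 187 L/ha overhead to first-second true leaf plants raised 7-21 d in greenhouse.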

[2] = system: Key Broadleaf Weed and Crop Species; assay: Post-emergent Test II herbicidal activity (Table 15); assay type: in vivo; settings: post-emergence, 336 h, 14 d; for pest or weed control at 35 g/ha: 35 g ai/ha; for pest or weed control at 70 g/ha: 70 g ai/ha; for pest or weed control at 140 g/ha: 140 g ai/ha
In short: as §1

[3] = Cyperus esculentus, yellow nutsedge (Cyperus esculentus), read-out: Visual Growth Reduction (%) 14 Days After Application, CYPES
[4] = Echinochloa crus-galli, barnyardgrass (Echinochloa crus-galli), read-out: Visual Growth Reduction (%) 14 Days After Application, ECHCG
[5] = Oryza sativa, rice (Oryza sativa), read-out: Visual Growth Reduction (%) 14 Days After Application, ORYSA
[6] = Setaria faberi, giant foxtail (Setaria faberi), read-out: Visual Growth Reduction (%) 14 Days After Application, SETFA
[7] = Triticum aestivum, wheat, spring (Triticum aestivum), read-out: Visual Growth Reduction (%) 14 Days After Application, TRZAS
[8] = Zea mays, maize, corn (Zea mays), read-out: Visual Growth Reduction (%) 14 Days After Application, ZEAMX
[9] = Abutilon theophrasti, velvetleaf (Abutilon theophrasti), read-out: Visual Growth Reduction (%) 14 Days After Application, ABUTH
[10] = Amaranthus retroflexus, redroot pigweed (Amaranthus retroflexus), read-out: Visual Growth Reduction (%) 14 Days After Application, AMARE
[11] = Brassica napus, oilseed rape, canola (Brassica napus), read-out: Visual Growth Reduction (%) 14 Days After Application, BRSNN
[12] = Chenopodium album, lambsquarters (Chenopodium album), read-out: Visual Growth Reduction (%) 14 Days After Application, CHEAL
[13] = Euphorbia heterophylla, wild poinsettia (Euphorbia heterophylla), read-out: Visual Growth Reduction (%) 14 Days After Application, EPHHL
[14] = Helianthus annuus, sunflower (Helianthus annuus), read-out: Visual Growth Reduction (%) 14 Days After Application, HELAN

| Compound | pest or weed control at 35 g/ha [1, 3] | pest or weed control at 70 g/ha [1, 3] | pest or weed control at 140 g/ha [1, 3] | pest or weed control at 35 g/ha [1, 4] | pest or weed control at 70 g/ha [1, 4] | pest or weed control at 140 g/ha [1, 4] | pest or weed control at 35 g/ha [1, 5] | pest or weed control at 70 g/ha [1, 5] | pest or weed control at 140 g/ha [1, 5] | pest or weed control at 35 g/ha [1, 6] | pest or weed control at 70 g/ha [1, 6] | pest or weed control at 140 g/ha [1, 6] | pest or weed control at 35 g/ha [1, 7] | pest or weed control at 70 g/ha [1, 7] | pest or weed control at 140 g/ha [1, 7] | pest or weed control at 35 g/ha [1, 8] | pest or weed control at 70 g/ha [1, 8] | pest or weed control at 140 g/ha [1, 8] | melting point | pest or weed control at 35 g/ha [2, 9] | further results |
| --- | --- | --- | --- | --- | --- | --- | --- | --- | --- | --- | --- | --- | --- | --- | --- | --- | --- | --- | --- | --- | --- |
| COC(=O)c1nc(-c2cc3ccoc3cc2F)cc(N)c1Cl [Compound 2.04] | 0 to 29% | 0 to 29% | 30 to 44% | 60 to 74% | 95 to 100% | 95 to 100% | 0 to 29% | 0 to 29% | 0 to 29% | 60 to 74% | 75 to 84% | 85 to 94% | 0 to 29% | 30 to 44% | 45 to 59% | 60 to 74% | 75 to 84% | 85 to 94% | 98 °C | 75 to 84% | pest or weed control at 70 g/ha [2, 9]: 85 to 94%; pest or weed control at 140 g/ha [2, 9]: 95 to 100%; pest or weed control at 35 g/ha [2, 10]: 95 to 100%; pest or weed control at 70 g/ha [2, 10]: 95 to 100%; pest or weed control at 140 g/ha [2, 10]: 95 to 100%; pest or weed control at 35 g/ha [2, 11]: 0 to 29%; pest or weed control at 70 g/ha [2, 11]: 0 to 29%; pest or weed control at 140 g/ha [2, 11]: 30 to 44%; pest or weed control at 35 g/ha [2, 12]: 95 to 100%; pest or weed control at 70 g/ha [2, 12]: 95 to 100%; pest or weed control at 140 g/ha [2, 12]: 95 to 100%; pest or weed control at 35 g/ha [2, 13]: 95 to 100%; pest or weed control at 70 g/ha [2, 13]: 95 to 100%; pest or weed control at 140 g/ha [2, 13]: 95 to 100%; pest or weed control at 35 g/ha [2, 14]: 0 to 29%; pest or weed control at 70 g/ha [2, 14]: 0 to 29%; pest or weed control at 140 g/ha [2, 14]: 30 to 44% |
| COC(=O)c1nc(-c2cc3ccoc3cc2F)nc(N)c1OC [Compound 2.05] | 0 to 29% | 0 to 29% | 0 to 29% | 0 to 29% | 0 to 29% | 0 to 29% | 0 to 29% | 0 to 29% | 0 to 29% | 0 to 29% | 0 to 29% | 0 to 29% | 0 to 29% | 0 to 29% | 0 to 29% | 0 to 29% | 0 to 29% | 0 to 29% | 160 °C | 0 to 29% | pest or weed control at 70 g/ha [2, 9]: 0 to 29%; pest or weed control at 140 g/ha [2, 9]: 0 to 29%; pest or weed control at 35 g/ha [2, 10]: 85 to 94%; pest or weed control at 70 g/ha [2, 10]: 75 to 84%; pest or weed control at 140 g/ha [2, 10]: 95 to 100%; pest or weed control at 35 g/ha [2, 11]: 0 to 29%; pest or weed control at 70 g/ha [2, 11]: 0 to 29%; pest or weed control at 140 g/ha [2, 11]: 0 to 29%; pest or weed control at 35 g/ha [2, 12]: 0 to 29%; pest or weed control at 70 g/ha [2, 12]: 0 to 29%; pest or weed control at 140 g/ha [2, 12]: 45 to 59%; pest or weed control at 35 g/ha [2, 13]: 30 to 44%; pest or weed control at 70 g/ha [2, 13]: 30 to 44%; pest or weed control at 140 g/ha [2, 13]: 45 to 59%; pest or weed control at 35 g/ha [2, 14]: 0 to 29%; pest or weed control at 70 g/ha [2, 14]: 0 to 29%; pest or weed control at 140 g/ha [2, 14]: 30 to 44% |
| COC(=O)c1nc(-c2ccc3ccoc3c2F)c(F)c(N)c1Cl [Compound 2.09] | 0 to 29% | 0 to 29% | 0 to 29% | 60 to 74% | 85 to 94% | 85 to 94% | 0 to 29% | 30 to 44% | 30 to 44% | 45 to 59% | 60 to 74% | 60 to 74% | 0 to 29% | 0 to 29% | 0 to 29% | 45 to 59% | 60 to 74% | 60 to 74% | 151 °C | 85 to 94% | pest or weed control at 70 g/ha [2, 9]: 85 to 94%; pest or weed control at 140 g/ha [2, 9]: 85 to 94%; pest or weed control at 35 g/ha [2, 10]: 85 to 94%; pest or weed control at 70 g/ha [2, 10]: 95 to 100%; pest or weed control at 140 g/ha [2, 10]: 95 to 100%; pest or weed control at 35 g/ha [2, 11]: 60 to 74%; pest or weed control at 70 g/ha [2, 11]: 75 to 84%; pest or weed control at 140 g/ha [2, 11]: 85 to 94%; pest or weed control at 35 g/ha [2, 12]: 95 to 100%; pest or weed control at 70 g/ha [2, 12]: 95 to 100%; pest or weed control at 140 g/ha [2, 12]: 95 to 100%; pest or weed control at 35 g/ha [2, 13]: 95 to 100%; pest or weed control at 70 g/ha [2, 13]: 95 to 100%; pest or weed control at 140 g/ha [2, 13]: 95 to 100%; pest or weed control at 35 g/ha [2, 14]: 60 to 74%; pest or weed control at 70 g/ha [2, 14]: 75 to 84%; pest or weed control at 140 g/ha [2, 14]: 85 to 94% |
